Like-named read-outs stand apart in the source and are kept apart here.
Columns and labels:
Human NMT1 (HsNMT1) = Human NMT1 (HsNMT1) (Homo sapiens, UniProt P30419); experiment: biochemical
[1] = Rat clearance and bioavailability (iv and oral dosing); type: in vivo; conditions: male, Sprague-Dawley, plasma, administered as a single compound; for half-life: read-out: Rat iv t1/2 (converted)
Raji cells = experiment: CellTiter-Blue assay, Raji; type: cell-based; conditions: Homo sapiens, Raji cell line, 72 hours
Description: (§1) Assay (d): CellTiter-Blue® Assay
(§2) BL-41, Ramos, Raji and A20 cells (obtained from Cell Services at the Crick Institute; cell type of BL-41, Ramos, Raji: Burkitt's Lymphoma; cell type of A20: murine B cell lymphoma cell line) were grown in RPMI-1640 media in 5% CO2 (supplemented with 10% FBS). The cells were seeded in 96-well plates, 24 h prior to treatment. Cell suspensions were prepared by adjusting the cell density to the appropriate concentration (as stated in the Table 9 below) and 50 μL of the cell suspension was transferred to wells B-G in columns 2-11 of a 96-well plate. […]
(§3) 72 hours later, 20 μl/well CellTiter-Blue® (G8081, Promega) were added to the plates according to the manufacturer's protocol, the plate was incubated at 37° C. for 2 or 3-4 h (A20, Ramos and Raji: 2 h; BL-41 and EL-4: 3-4 h), followed by measuring the absorbance per well at 570 nm using an EnVision plate reader. […] The metabolic activity was calculated as a percentage relative to the positive control. The EC50 values were calculated using GraphPad Prism.

A20 cells = experiment: CellTiter-Blue assay, A20; type: cell-based, murine; conditions: Mus musculus, A20 cell line, 72 hours
Description: as §1, §2, §3

Ramos cells = experiment: CellTiter-Blue assay, Ramos; type: cell-based; conditions: Homo sapiens, Ramos cell line, 72 hours
Description: as §1, §2, §3

[2] = target: Plasmodium vivax (Pv) NMT (Plasmodium vivax (strain Salvador I), UniProt A5K1A2); experiment: biochemical
Sequence of Plasmodium vivax (Pv) NMT (A5K1A2 1-410): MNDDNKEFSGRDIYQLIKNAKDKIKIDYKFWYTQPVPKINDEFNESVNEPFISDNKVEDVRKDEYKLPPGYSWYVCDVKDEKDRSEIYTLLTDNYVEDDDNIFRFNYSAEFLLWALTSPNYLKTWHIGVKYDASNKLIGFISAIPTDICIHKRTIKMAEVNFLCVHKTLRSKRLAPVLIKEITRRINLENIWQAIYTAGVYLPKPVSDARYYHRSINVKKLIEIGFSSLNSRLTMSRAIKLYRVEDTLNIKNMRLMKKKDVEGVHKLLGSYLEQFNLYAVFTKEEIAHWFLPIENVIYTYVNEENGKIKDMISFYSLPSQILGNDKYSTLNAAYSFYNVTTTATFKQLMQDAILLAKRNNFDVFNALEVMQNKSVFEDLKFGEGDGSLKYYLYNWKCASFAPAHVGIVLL

BL-41 cells [3] = experiment: Metabolic activity assay (MTS assay) in BL-41 cell line; type: cell-based; conditions: Homo sapiens, 72 h
EL4 cells = experiment: CellTiter-Blue assay, EL4; type: cell-based; conditions: EL4 cell line, 72 hours
Description: as §1
Cell suspensions were prepared by adjusting the cell density to the appropriate concentration (as stated in the Table 10 below) and 50 μL of the cell suspension was transferred to wells B-G in columns 2-11 of a 96-well plate.
For each the BL-41, Ramos, Raji, A20 cell lines and EL4, twenty-four hours later, 50 μL of the growth media for the respective cell line (positive control), a mix of Puromycin and Staurosporine (negative controls, final concentration 10 μg/mL and 1 μM respectively) or different concentrations of each Example compound being tested (dilution factor=3, starting at μM, final concentration in the plate starting from 10 μM) were prepared and added to a well of the 96-well plate. The plate was incubated at 37° C. with 5% CO2 level.
72 hours later, 20 μl/well CellTiter-Blue® (G8081, Promega) were added to the plates according to the manufacturer's protocol, the plate was incubated at 37° C. for 2 or 3-4 h (A20, Ramos and Raji: 2 h; BL-41 and EL-4: 3-4 h), followed by measuring the absorbance per well at 570 nm using an EnVision plate reader. The negative control values were subtracted from every value. The metabolic activity was calculated as a percentage relative to the positive control. The EC50 values were calculated using GraphPad Prism.

SU-DHL-10 cells = experiment: Cell cytotoxicity in SU-DHL-10 cell line (CellTiter-Glo); type: cell-based; conditions: Homo sapiens, SU-DHL10; CellTiter-Glo, 48 h; read-out: SU-DHL-10 EC50
[4] = test system: Plasmodium falciparum 3D7; experiment: SYBR Green assay, Plasmodium falciparum strain 3D7; type: cell-based; conditions: P. falciparum strain 3D7, 96 h incubation, read-out: Pf EC50 strain 3D7
in vitro = conditions: male, Sprague-Dawley, rat, pooled cryopreserved rat hepatocytes, pH 7.4
DOHH-2 tumor cells = experiment: Mouse xenograft, subcutaneous DOHH-2 Lymphoma Model; type: in vivo; conditions: compared to vehicle
Description: Assay (i): Mouse Xenograft Protocol
The in vivo efficacy was assess in a subcutaneous xenograft DOHH-2 Lymphoma Model using Female 6-8 week old CB17/SCID Mice. […] The test compound administration started once the mean tumor size reached approximately 100-150 mm3. Compounds were administered either IP (vehicle 58% Na2HPO4 buffer (10 mM) (pH4.5)+40% PEG400+2% DMSO) or orally (vehicle Na2HPO4 buffer (10 mM) (pH 4.5)+0.2% tween 80). Tumor volumes were measured in two dimensions using a caliper, and the volume expressed in mm3 using the formula: V=(L×W×W)/2, where V is tumor volume, L is tumor length (the longest tumor dimension) and W is tumor width (the longest tumor dimension perpendicular to L).
Mice were dosed with Example 2 orally (50 mg/kg) once a day for 9 consecutive days (FIG. 5a), or Example 2 was dosed intraperitonally (25 mg/kg) in a cycle consisting of administration twice a day for three days followed by a four day no-dosing period (FIG. 5b). The cycle was repeated three times.
Mice were dosed with Example 129 intraperitonally (25 mg/kg) in a cycle consisting of administration twice a day for three days followed by a four day no-dosing period (Figure Sc). The cycle was repeated three times.
The protocol and any amendment(s) or procedures involving the care and use of animals in this study were reviewed and approved by the Institutional Animal Care and Use Committee (IACUC) of CrownBio prior to execution. During the study, the care and use of animals was conducted in accordance with the regulations of the Association for Assessment and Accreditation of Laboratory Animal Care (AAALAC).

BL-41 cells [5] = experiment: CellTiter-Blue assay, BL-41; type: cell-based; conditions: Homo sapiens, BL41 cell line, 72 hours
Description: as §1, §2, §3

[6] = test system: P. falciparum Pf3D7^0087/N9; experiment: Mouse malaria model, NODscidIL2Rγnull mice engrafted with human erythrocytes; conditions: for activity compared to untreated control mice: day 7 post-infection
[7] = target: Plasmodium falciparum NMT (Plasmodium falciparum (isolate 3D7), UniProt Q8ILW6); conditions: cited from earlier work

Sequence of Human NMT1 (HsNMT1) (P30419 whole entry, looked up): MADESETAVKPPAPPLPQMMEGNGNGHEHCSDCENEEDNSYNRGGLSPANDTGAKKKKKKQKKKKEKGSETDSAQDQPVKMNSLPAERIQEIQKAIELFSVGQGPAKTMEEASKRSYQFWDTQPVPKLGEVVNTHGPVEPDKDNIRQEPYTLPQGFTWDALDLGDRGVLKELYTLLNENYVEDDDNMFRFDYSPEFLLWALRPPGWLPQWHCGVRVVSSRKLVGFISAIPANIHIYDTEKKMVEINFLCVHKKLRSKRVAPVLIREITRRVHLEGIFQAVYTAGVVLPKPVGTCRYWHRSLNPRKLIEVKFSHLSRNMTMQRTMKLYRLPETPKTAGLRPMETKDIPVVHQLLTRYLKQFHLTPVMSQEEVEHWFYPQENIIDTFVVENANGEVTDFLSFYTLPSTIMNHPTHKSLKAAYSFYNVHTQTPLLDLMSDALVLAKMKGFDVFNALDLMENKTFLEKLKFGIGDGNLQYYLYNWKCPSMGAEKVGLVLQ

Compound	EC50 (Raji cells)	EC50 (A20 cells)	EC50 (Ramos cells)	IC50 [2]	EC50 (BL-41 cells [3])	EC50 (EL4 cells)	EC50 (SU-DHL-10 cells)	EC50 [4]	half-life at 1 µM (in vitro)	EC50 (BL-41 cells [5])	further results
C[C@H]1CN(C)CCN1c1ncc(Cl)c(N2CC(C(=O)NC(C)(C)c3cnc4ccccn34)C2)n1 [Example 2, 1-(5-chloro-2-[(2S)-2,4-dimethylpiperazin-1-yl]pyrimidin-4-yl)-N-(2-{imidazo[1,2-a]pyridin-3-yl}propan-2-yl)azetidine-3-carboxamide]	556 nM	600 nM	218 nM	4.1 nM	220 nM	139 nM	51 nM	2.4 nM	1.52 h	557 nM	IC50 (Human NMT1 (HsNMT1)): 2.7 nM; half-life ([1]; iv 1 mg/kg): 3.5 h; bioavailability ([1]; oral 10 mg/kg): 28%; tumour volume (DOHH-2 tumor cells; intraperitoneally 25 mg/kg twice a day for three days then four day no-dosing, cycle repeated three times): significant reduction in tumour volume; tumour volume (DOHH-2 tumor cells; orally 50 mg/kg once a day for 9 consecutive days): significant reduction in tumour volume
C[C@@H]1CN(c2ncc(Cl)c(N3CC(C(=O)NC(C)(C)c4cnc5ccccn45)C3)n2)CCN1C [Example 3, 1-(5-chloro-2-[(3R)-3,4-dimethylpiperazin-1-yl]pyrimidin-4-yl}-N-(2-{imidazo[1,2-a]pyridin-3-yl}propan-2-yl)azetidine-3-carboxamide]	1100 nM	6880 nM	2290 nM	3.4 nM	560 nM	1240 nM	624 nM	11 nM	2.05 h	218 nM	half-life ([1]; iv 2 mg/kg): 4.3 h; bioavailability ([1]; oral 20 mg/kg): 24%; activity compared to untreated control mice ([6]; 4×3 mg/kg p.o.): 4%; activity compared to untreated control mice ([6]; 4×10 mg/kg p.o.): 37%; mice / smears parasite free ([6]; 4×30 mg/kg p.o., day 7): all mice were parasite-free; activity compared to untreated control mice ([6]; 4×30 mg/kg p.o.): > 99.9%
Cc1cnc(CNC(=O)C2CN(c3nc(NCCN(C)C)ncc3Cl)C2)cn1 [PF-03531814, 1-(5-chloro-2-{[2-(dimethylamino)ethyl]amino}pyrimidin-4-yl)-N-[(5-methylpyrazin-2-yl)methyl]azetidine-3-carboxamide]											selective activity for Plasmodium falciparum NMT over both human NMTs [7]: selective activity
